The test system of data set [1] is wild-type HIV-1 (HIV-1LAI) in H9 cells (non-permissive). Nature of the data set: microbe, parasite or virus in culture. The format is cell-based. To be noted: for antiviral activity against HIV-1 (in words): HIV-1 replication.
Data set [2] is described as follows: Water solubility of choline salts. It is filed as physicochemical.
For data set [3], the system named is HA-tagged A3G and GFP-tagged Vif or ΔVif in 293FT cells. Nature of the data set: Immunoblot of A3G and Vif levels in transfected 293FT cells. To be noted: 16 h; for upregulation of A3G and downregulation of Vif (immunoblots, FIG. 16): 293FT cells, 50 μM. Background: In western blotting, separated proteins are transferred to a membrane and probed.
Data set [4] concerns Zika virus. Nature of the data set: Zika viral replication inhibition. It is filed as cell-based. To be noted: FIG. 20.
The subject of data set [5] is wild-type HIV-1 (HIV-1LAI) in MT-4 cells (permissive). Put plainly: Antiviral activity assay: wild-type HIV-1 in permissive MT4 cells, reverse transcriptase activity in culture supernatants. The format is cell-based.
The subject of data set [6] is Ebola virus. The format is cell-based. Conditions: FIG. 19.
The subject of data set [7] is polyubiquitination of A3G and Vif. Nature of the data set: Ubiquitination assay in 293FT cells. It is filed as cell-based. Conditions: 293FT-A3G-ΔVif cells (lacking Vif). The protocol: Cells were incubated with or without 10 μM of IMA82, IMD55, or IMD64 for 16 h, and then with or without 10 μM of the calpain inhibitor ALLN for 4 h. The cells were washed once with PBS and lysed. Samples of 200 μg protein were immunoprecipitated by the addition of rat anti-HA (Roche) or mouse anti-GFP (Wako) antibodies (7 μg) and 50 μl protein G DYNABEADS® (Invitrogen) and rotated at RT for 2 h. The beads were washed three times with PBS containing 0.05% Tween 20 and boiled in 5×SDS sample buffer. The denatured proteins were resolved and electroblotted onto PVDF membranes. The membranes were probed with rabbit anti-ubiquitin, rabbit anti-HA, or rabbit anti-GFP antibodies, as described above.

The test system of data set [8] is A3G, Vif, p24, HSP90 in HIV-1LAI-infected H9 and MT4 cells. Nature of the data set: Protein analysis (immunoblot) of HIV-1 infected H9 and MT4 cells. It is filed as cell-based. The protocol:
Non-permissive (H9) and permissive (MT4) cells were treated with 1% DMSO, IMA82, or 17-DMAG overnight and then infected with HIV-1LAI for 5 h. Cells were washed three times with PBS and cultured in medium for 72 h in the presence of the same concentrations of DMSO, IMA82, or 17-DMAG. Total cell lysates were prepared with M-PER buffer containing 0.5% Triton X-100, 150 mM NaCl, 5 mM EDTA, and protease inhibitor cocktail. Protein concentrations were determined with the DC protein assay kit (Bio-Rad). Immunoblotting was performed as described above.

Data set [9] relates to Vif-A3G-HSP90-Cul5-CBF-β E3 ligase complex. Put plainly: Immunoprecipitation of IMA82-interacting proteins / E3 ligase complex. The format is cell-based. Conditions: 293FT cells transfected with FLAG-HSP90 and HA-A3G, 16 h. The protocol:
Cells were washed twice with PBS and lysed in IP lysis buffer (Thermo) or in a buffer composed of 50 mM Tris-HCl (pH 7.2), 150 mM NaCl, 1% NP-40, 10% glycerol, and protease inhibitor cocktail. Cell lysates ([…]) were incubated with 5 μl of rat anti-HA (Roche), rabbit anti-GFP (Cell Signaling), mouse anti-Hsp90 (Millipore), or rabbit anti-Cul5 (Sigma) plus 30 μl of protein A or G DYNABEADS® (Invitrogen) and rotated at RT for 2 h. The beads were washed three times with PBS containing 0.05% Tween 20. Each lysate was immunoprecipitated in triplicate and the beads were combined. Immune complexes were eluted by boiling in 5×SDS sample buffer. The proteins were separated by SDS-PAGE and analyzed by immunoblotting with antibodies to HA (A3G), GFP (Vif), Hsp90, Cul5, and CBF-β, as described above.

[10] abbreviates: Human immunodeficiency virus 1, H9, read-out: IC50, anti-HIV-1 activity, non-permissive H9 cells.
Setting [11] is: Human immunodeficiency virus 1, H9, read-out: Antiviral activity (IC50 μM) H9 Cells, Table 4, wild-type HIV-1, non-permissive H9 cells.
[12] abbreviates: Human immunodeficiency virus 1, H9, read-out: Antiviral activity (IC50 μM) H9 Cells, Table 7, wild-type HIV-1, non-permissive H9 cells.
Setting [13] is: Human immunodeficiency virus 1, H9, read-out: Antiviral activity (IC50 μM) H9 cells, Table 5, wild-type HIV-1, non-permissive H9 cells.
Where [14] appears, read: Human immunodeficiency virus 1, H9, read-out: Antiviral activity (IC50 μM) H9 cells, Table 8, wild-type HIV-1, non-permissive H9 cells.
The mark [15] stands for this setting: Human immunodeficiency virus 1, H9, read-out: Antiviral activity (IC50 μM) H9 cells, wild-type HIV-1 (HIV-1LAI), H9 cells (non-permissive), RT activity in culture supernatants, compounds 1 to 50 μM.
Where [16] appears, read: Human immunodeficiency virus 1, H9, read-out: Antiviral activity (IC50 μM) H9, Table 2, wild-type HIV-1, non-permissive H9 cells.
Setting [17] is: Human immunodeficiency virus 1, MT4, Table 2, wild-type HIV-1, permissive MT4 cells, read-out: Antiviral activity (IC50 μM) MT4.
Setting [18] is: Human immunodeficiency virus 1, MT4, wild-type HIV-1 (HIV-1LAI), MT4 cells (permissive), RT activity in culture supernatants, compounds 1 to 50 μM, read-out: Antiviral activity (IC50 μM) MT4 cells.

Entries after “also recorded” stand apart in the source; their conditions may differ. Like-named read-outs stand apart in the source and are kept apart here. Bounds are passed on as bounds.

In general, IC50 refers to the midpoint of a concentration-inhibition curve. Turning to `COc1ccccc1-n1cc(-c2ccccc2S(=O)(=O)c2ccc(C(=O)O)cc2)nn1` [Compound 2gy, 2-Hydroxy-N,N,N-trimethylethanaminium 4-((2-(1-(2-methoxyphenyl)-1H-1,2,3-triazol-4-yl)phenyl)sulfonyl)benzoate], in data set [1], the “antiviral activity against HIV-1 (in words)” value (from here on “antiviral activity”) is given as “potent activities”. For the same compound, the IC50 in data set [1] (setting [10]) was determined as 0.2 µM. For the same compound, in [2], the water solubility result is recorded as “water-soluble”. Besides, the “upregulation of A3G and downregulation of Vif (immunoblots, FIG. 16)” value (“upregulation” for short) in data set [3] was “same mechanism as of RN-18; also recorded: same mechanism as observed for RN-18 and 1d”.
For `COc1ccc(OC)c(-n2cc(-c3ccccc3S(=O)(=O)c3ccc(C(=O)O)cc3)nn2)c1` [Compound 5gy, 2-Hydroxy-N,N,N-trimethylethanaminium 4-((2-(1-(2,5-dimethoxyphenyl)-1H-1,2,3-triazol-4-yl)phenyl)sulfonyl)benzoate], the “antiviral activity” value in data set [1] is on record as “potent activities”. Moreover, the IC50 in data set [1] (setting [11]), in [1] (setting [12]) and in [1] (setting [10]) was 0.5 µM in each case. The water solubility result in data set [2] was “water-soluble”. Also, in data set [3], the “upregulation” value is “same mechanism as of RN-18; also recorded: same mechanism as observed for RN-18 and 1d”.
Consider `COC(=O)c1ccc(Sc2ccccc2-c2cn(-c3c(OC)cccc3OC)nn2)cc1` [Compound 6bx, Methyl 4-((2-(1-(2,6-dimethoxyphenyl)-1H-1,2,3-triazol-4-yl)phenyl)thio)benzoate], for which the IC50 in [1] (setting [11]), in data set [1] (setting [12]), in [1] (setting [13]), in data set [1] (setting [14]), in data set [1] (setting [15]) and in [1] (setting [10]) was 0.2 µM throughout. Further, the Zika viral replication entry in data set [4] was “Zika viral replication inhibition”.
As to `COc1ccc(-n2cc(-c3ccccc3S(=O)(=O)c3ccc(C(=O)O)cc3)nn2)c(OC)c1` [Compound 4gy, 2-Hydroxy-N,N,N-trimethylethanaminium 4-((2-(1-(2,4-dimethoxyphenyl)-1H-1,2,3-triazol-4-yl)phenyl)sulfonyl)benzoate], the “antiviral activity” value in data set [1] is “potent activities”. For the same compound, the IC50 in data set [1] (setting [16]) was 0.7 µM; in data set [1] (setting [11]), 0.7 µM; in data set [1] (setting [12]), 0.7 µM; in [1] (setting [10]) it was 0.7 µM; in data set [5] (setting [17]), over 50 µM; in [5] (setting [18]), over 50 µM. Besides, in data set [2], the water solubility entry is listed as “water-soluble”.
In the case of `COc1ccc(OC)c(-n2cc(-c3ccccc3S(=O)(=O)c3ccc([N+](=O)[O-])cc3)nn2)c1` [Compound 5ay, 1-(2,5-Dimethoxyphenyl)-4-(2-((4-nitrophenyl)sulfonyl)phenyl)-1H-1,2,3-triazole], the IC50 in data set [1] (setting [16]), in data set [1] (setting [11]), in data set [1] (setting [12]), in [1] (setting [13]), in [1] (setting [14]) and in data set [1] (setting [15]) was 1 µM throughout. Further, the IC50 in data set [1] (setting [10]) is 1 to 3 µM; in data set [5] (setting [17]) it was over 50 µM; in data set [5] (setting [18]), over 50 µM. Besides, in data set [6], the Ebola viral replication entry is on record as “Ebola viral replication inhibition”.
With `C=CCNC1=C2C[C@@H](C)C[C@H](OC)[C@H](O)[C@@H](C)/C=C(\C)[C@H](OC(N)=O)[C@@H](OC)/C=C\C=C(/C)C(=O)NC(=CC1=O)C2=O` [Compound 17-AAG, 17-N-Allylamino-17-demethoxygeldanamycin, reference compound], the A3G ubiquitination result in [7] is reported as “ubiquitinated”. For the same compound, in [8] (HIV-1-infected H9 cells), the A3G levels result is “dose-dependently decreased the expression of A3G” and the Vif levels entry is “without affecting Vif expression”. In addition, the A3G expression result in data set [8] (uninfected H9 cells, 16 h) is “decreased”. In addition, the “HSP90-A3G interaction, FLAG-HSP90 affinity purification” value in [9] was “remained in complexes with A3G”. Also, the A3G expression result in data set [3] (293FT cells co-expressing HA-A3G and Vif or ΔVif) is “dose-dependently decreased A3G expression”. For the same compound, the “Vif expression / degradation” value in data set [3] (293FT cells co-expressing HA-A3G and Vif) is given as “unaffected”. In data set [3] (transfected 293FT cells), the HSP90 expression entry is reported as “no effect on HSP90 levels”.
Regarding `COC(=O)c1ccc(Sc2ccccc2-c2cn(-c3cc(OC)ccc3OC)nn2)cc1` [Compound 5bx, Methyl 4-((2-(1-(2,5-dimethoxyphenyl)-1H-1,2,3-triazol-4-yl)phenyl)thio)benzoate], the IC50 in [1] (setting [16]), in data set [1] (setting [11]), in data set [1] (setting [12]), in [1] (setting [13]), in [1] (setting [14]) and in [1] (setting [15]) was 0.2 µM each time. Moreover, the results for the IC50 in [1] (setting [10]), in [5] (setting [17]) and in data set [5] (setting [18]) were 0.2 µM, over 50 µM and over 50 µM, respectively. In addition, the Zika viral replication result in [4] is listed as “Zika viral replication inhibition”. Further, in data set [3], the “upregulation” value is “same mechanism as of RN-18; also recorded: same mechanism as observed for RN-18 and 1d”.
Turning to `COC(=O)c1ccc(Sc2ccccc2-c2cn(-c3ccc(OC)cc3OC)nn2)cc1` [Compound 4bx, Methyl 4-((2-(1-(2,4-dimethoxyphenyl)-1H-1,2,3-triazol-4-yl)phenyl)thio)benzoate], the IC50 in data set [1] (setting [13]), in data set [1] (setting [14]) and in data set [1] (setting [15]) was 2 µM throughout. The Ebola viral replication result in data set [6] is recorded as “Ebola viral replication inhibition”. Besides, in [4], the Zika viral replication entry is recorded as “Zika viral replication inhibition”.

The values are drawn from patent publication US11136301B2, “Broad spectrum antiviral compounds and uses thereof” (The Regents Of The University Of California, priority 2015, dated 2021).
